Tested on: patients of the REDUCE-IT and earlier EPA placebo-controlled trials
Assay type: in vivo, human
Details: R-I

## CC/C=C\C/C=C\C/C=C\C/C=C\C/C=C\CCCC(=O)OCC [icosapent ethyl, eicosapentaenoic acid ethyl ester]
  AR: ALP high (Day 120): 3.2%
  AR: ALP high (Day 360): 3.4%
  AR: ALP high (Day 720): 4.4%
  AR: ALP high (Day 1080): 4.4%
  AR: ALP high (Day 1440): 4.2%
  AR: ALP high (Day 1800): 4.3%
  AR: ALP shift: normal to high (Day 120): 1.5%
  AR: ALP shift: normal to high (Day 360): 1.8%
  AR: ALP shift: normal to high (Day 720): 3.0%
  AR: ALP shift: normal to high (Day 1080): 3.3%
  AR: ALP shift: normal to high (Day 1440): 3.2%
  AR: ALP shift: normal to high (Day 1800): 3.3%
  AR: ALP shift: normal to low (Day 120): 0.3%
  AR: ALP shift: normal to low (Day 360): 0.3%
  AR: ALP shift: normal to low (Day 720): 0.4%
  AR: ALP shift: normal to low (Day 1080): 0.4%
  AR: ALP shift: normal to low (Day 1440): 0.6%
  AR: Albumin high (Day 120): 1.0%
  AR: Albumin high (Day 360): 1.2%
  AR: Albumin high (Day 720): 2.1%
  AR: Albumin high (Day 1080): 1.9%
  AR: Albumin high (Day 1440): 1.8%
  AR: Albumin shift: normal to high (Day 120): 0.8%
  AR: Albumin shift: normal to high (Day 360): 0.9%
  AR: Albumin shift: normal to high (Day 720): 1.9%
  AR: Albumin shift: normal to high (Day 1080): 1.8%
  AR: Albumin shift: normal to high (Day 1440): 1.6%
  AR: Bilirubin >1x ULN to 2x ULN: 3.3%
  AR: Bilirubin >2x ULN to 3x ULN: 0.2%
  AR: Bilirubin high (Day 120): 1.9%
  AR: Bilirubin high (Day 360): 1.9%
  AR: Bilirubin high (Day 720): 2.0%
  AR: Bilirubin high (Day 1080): 2.4%
  AR: Bilirubin high (Day 1440): 2.3%
  AR: Bilirubin high (Day 1800): 2.6%
  AR: Bilirubin shift: normal to high (Day 120): 1.0%
  AR: Bilirubin shift: normal to high (Day 360): 0.9%
  AR: Bilirubin shift: normal to high (Day 720): 1.0%
  AR: Bilirubin shift: normal to high (Day 1080): 1.4%
  AR: Bilirubin shift: normal to high (Day 1440): 1.3%
  AR: Bilirubin shift: normal to high (Day 1800): 1.4%
  AR: Calcium high (Day 120): 1.0%
  AR: Calcium high (Day 360): 1.1%
  AR: Calcium high (Day 720): 1.2%
  AR: Calcium low (Day 120): 0.2%
  AR: Calcium low (Day 360): 0.2%
  AR: Calcium low (Day 720): 0.2%
  AR: DBP High (≥100 mmHg): 5.3%
  AR: DBP High and Rose ≥10 mmHg: 4.3%
  AR: DBP Low (≤50 mmHG): 1.0%
  AR: DBP Low and dropped ≥10 mmHg: 0.9%
  AR: DBP dropped ≥10 mmHG: 37.8%
  AR: DBP rose ≥10 mmHg: 36.5%
  AR: High platelets (Day 720): 1.5%
  AR: Low platelets (Day 360): 2.0%
  AR: Low platelets (Day 720): 3.1%
  AR: Low platelets (Day 1080): 3.2%
  AR: Platelet count: PCS Low <100 × 10^3/uL: 0.8%
  AR: SBP High (≥160 mmHg): 18.8%
  AR: SBP High and rose ≥20 mmHg: 11.9%
  AR: SBP Low (≤90 mmHg): 0.8%
  AR: SBP dropped ≥20 mmHg: 24.0%
  AR: SBP low and dropped ≥20 mmHg: 0.6%
  AR: SBP rose ≥20 mmHg: 29.6%
  AR: Urate high (Day 120): 13.4%
  AR: Urate high (Day 360): 13.0%
  AR: Urate high (Day 720): 12.4%
  AR: Urate high (Day 1080): 12.7%
  AR: Urate high (Day 1440): 12.7%
  AR: Urate high (Day 1800): 12.1%
  AR: Urate shift: normal to high (Day 120): 5.5%
  AR: Urate shift: normal to high (Day 360): 6.0%
  AR: Urate shift: normal to high (Day 720): 6.2%
  AR: Urate shift: normal to high (Day 1080): 7.1%
  AR: Urate shift: normal to high (Day 1440): 8.2%
  AR: Urate shift: normal to high (Day 1800): 8.2%
  AR: Urate shift: normal to low (Day 120): 0.1%
  AR: Urate shift: normal to low (Day 360): 0.2%
  AR: Urate shift: normal to low (Day 720): 0.2%
  AR: Urate shift: normal to low (Day 1080): 0.2%
  AR: Urate shift: normal to low (Day 1440): 0.3%
  AR: Uric acid PCS High >7.5 mg/dL (Women): 5.0%
  AR: Uric acid PCS High >8.0 mg/dL (Men): 15.3%
  AR: Uric acid PCS Low <1.9 mg/dL (Women): 0.0%
  AR: Uric acid PCS Low <2.5 mg/dL (Men): 0.4%
  ARR: ALP high (Day 120): −1.5%
  ARR: ALP high (Day 360): −2.0%
  ARR: ALP high (Day 720): −2.4%
  ARR: ALP high (Day 1080): −3.0%
  ARR: ALP high (Day 1440): −2.9%
  ARR: ALP high (Day 1800): −2.7%
  ARR: ALP shift: normal to high (Day 120): −1.3%
  ARR: ALP shift: normal to high (Day 360): −1.8%
  ARR: ALP shift: normal to high (Day 720): −2.6%
  ARR: ALP shift: normal to high (Day 1080): −3.0%
  ARR: ALP shift: normal to high (Day 1440): −2.7%
  ARR: ALP shift: normal to high (Day 1800): −2.6%
  ARR: ALP shift: normal to low (Day 120): 0.4%
  ARR: ALP shift: normal to low (Day 360): 0.3%
  ARR: ALP shift: normal to low (Day 720): 0.4%
  ARR: ALP shift: normal to low (Day 1080): 0.3%
  ARR: ALP shift: normal to low (Day 1440): 0.1%
  ARR: Albumin high (Day 120): 0.8%
  ARR: Albumin high (Day 360): 0.7%
  ARR: Albumin high (Day 720): 0.6%
  ARR: Albumin high (Day 1080): 0.7%
  ARR: Albumin high (Day 1440): 0.8%
  ARR: Albumin shift: normal to high (Day 120): 0.8%
  ARR: Albumin shift: normal to high (Day 720): 0.7%
  ARR: Albumin shift: normal to high (Day 1080): 0.4%
  ARR: Albumin shift: normal to high (Day 1440): 0.7%
  ARR: Bilirubin >1x ULN to 2x ULN: 3.5%
  ARR: Bilirubin >2x ULN to 3x ULN: 0.2%
  ARR: Bilirubin high (Day 120): 2.4%
  ARR: Bilirubin high (Day 360): 2.0%
  ARR: Bilirubin high (Day 720): 2.6%
  ARR: Bilirubin high (Day 1080): 2.0%
  ARR: Bilirubin high (Day 1440): 2.5%
  ARR: Bilirubin high (Day 1800): 2.3%
  ARR: Bilirubin shift: normal to high (Day 120): 1.3%
  ARR: Bilirubin shift: normal to high (Day 360): 1.3%
  ARR: Bilirubin shift: normal to high (Day 720): 1.3%
  ARR: Bilirubin shift: normal to high (Day 1080): 1.0%
  ARR: Bilirubin shift: normal to high (Day 1440): 1.8%
  ARR: Bilirubin shift: normal to high (Day 1800): 1.2%
  ARR: Calcium high (Day 120): −0.2%
  ARR: Calcium high (Day 360): −0.1%
  ARR: Calcium high (Day 720): −0.3%
  ARR: Calcium low (Day 120): 0.1%
  ARR: Calcium low (Day 360): 0.2%
  ARR: Calcium low (Day 720): 0.2%
  ARR: DBP High (≥100 mmHg): 0.6%
  ARR: DBP High and Rose ≥10 mmHg: 0.4%
  ARR: DBP Low (≤50 mmHG): 0.1%
  ARR: DBP Low and dropped ≥10 mmHg: 0.0%
  ARR: DBP dropped ≥10 mmHG: 3.2%
  ARR: DBP rose ≥10 mmHg: −0.6%
  ARR: High platelets (Day 720): 0.6%
  ARR: Low platelets (Day 360): −1.8%
  ARR: Low platelets (Day 720): −0.7%
  ARR: Low platelets (Day 1080): −1.2%
